# Test results as given in patent US8343912B2, “Antibiotic compositions for the treatment of gram negative infections” (priority 2008, dated 2013).
# Marks after values point to notes of the source that are not given here. Numbered stars: 1 amine (or outer) side, 2 acyl side, 3 side chain; on linkers, the order of the positions; unused ones are H or OH. Bridge positions count the residues as written; N and C are the ends. Square brackets hold non-standard residues; d marks the D form. Peptide text beside a SMILES is read from it. * marks the point of attachment. Octanoyl(6-Me) = CCC(C)CCCCC(=O)*; NH(2-ClPh) = Clc1ccccc1N*; Dab = NCC[CH](N)C(=O)O; CO = O=C([*:1])[*:2]
# Experiments:
# [1] = system: A. baumannii #1570; experiment: Thigh infection in neutropenic mice; assay type: in vivo; details: for Log10 CFU/mL thigh homogenate ± SD: thighs at 24 h; for ED−3log10 (dose for 3 log10 reduction in bacterial count vs water): thigh infection, sc, Compound 5 value corrected for lot potency 711 μg/mg
# Procedure: Infections were induced in neutropenic mice by […] the left thigh of each mouse. Compound 5, or a comparator drug, either polymyxin B, colistin or imipenem, were administered subcutaneously at 1 hour and 6 hours post-infection. Eighteen hours after the last treatment, mice were euthanized humanely; the infected thighs were removed, homogenized, serially diluted, and plated on agar. The bacterial burden was then quantitated by colony count. Compound 5, polymyxin B, colistin, and imipenem were evaluated for their ability to decrease the bacterial burden in the infected thighs compared with water-treated control mice.
# All the test compounds were dissolved in sterile water for administration by subcutaneous (sc) injection. A series of dilutions of test compounds were prepared in sterile water.
# Mice were made neutropenic by ip administration with 150 mg/kg cyclophosphamide on day-4, followed by a second ip dose of 100 mg/kg cyclophosphamide on day-1. A diluted exponential-phase growing culture of A. baumannii #1570 corresponding to 1×10^7 or 5×10^4 CFU respectively, in 0.2 mL of sterile saline, was injected into the left thigh of conscious mice on day 0. The actual concentration of bacteria in the inoculum was confirmed by determination of viable counts by dilution plating on tryptic soy agar plates. The number of CFU of bacteria was determined after an incubation of 16 hours at 37° C.
# Groups of five mice were used for each dose of the test compounds and the vehicle. Each group received sc injections of test compounds or vehicle at 1 hour post-infection, and then at 6 hours post-infection for a total of 2 doses. In each study, there were three to five dose groups per test compound. Eighteen hours after the last injection, the mice were euthanized by asphyxiation with CO2. The left thighs were removed aseptically, homogenized in 4 mL of distilled water and dilution plated on tryptic soy agar plates to quantify bacterial CFU. The number of CFU of bacteria in thighs was determined after an incubation of 16 hours at 37° C. (the CFU per milliliter of homogenate).
# The results were expressed as the geometric mean log10 CFU/mL±the standard deviation. The limit of detection was 10 CFU per mL of thigh homogenate. Thighs were considered sterile when no CFU were detected on the agar. The efficacy of the test compounds was assessed by comparing the number of log10 CFU/mL measured in the treated mice with control animals treated with vehicle (water). The efficacy of Compound 5 was also compared with the positive comparator antibiotics polymyxin B, colistin and imipenem-cilastatin.
# Dose response curves of test compounds were generated for each isolate. Regression lines were generated using Microsoft Excel to calculate the dose administered twice daily (BID) predicted to produce a 3 log10 reduction in bacterial count as compared to the water-treated control group [ED−3 log 10 (mg/kg, sc, BID)].
# [2] = system: P. aeruginosa; experiment: MIC, broth microdilution (Table 4); assay type: cell-based, Pseudomonas aeruginosa; details: for MIC P. aeruginosa: Table 4
# Procedure: MIC testing was performed according to Clinical and Laboratory Standards Institute (CLSI) M7-A7 (2006) broth microdilution methods. Unless otherwise indicated, MIC values are provided in units of micrograms per milliliter.
# One day prior to testing, individual colonies were isolated by streaking onto rich, non-selective Tryptic Soy agar with 5% lysed sheeps blood (TSAB) with incubation at 35-37° C. for 18-24 hours.
# Cultures were prepared by touching 3-5 colonies into 3 mL of Cation adjusted Mueller Hinton Broth (caMHB) in a 14 mL tube (CaMHB was prepared and sterilized according to manufacturer's specifications). Cultures were grown at 37° C. 200 rpm for approximately four hours prior to density adjustment for addition to the MIC assay.
# OD600 of growing cultures was measured and adjusted to approximately 10^5 colony forming units per mL (CFU/mL) in caMHB for MIC inoculation (approximately OD600 0.001).
# Diluted cultures were used to inoculate 50 μL per well in broth microdilution assays (final volume 100 μl per well; compounds were prepared in two-fold dilutions).
# Plates were incubated 16-20 hrs at 37° C., with shaking at 200 rpm.
# OD600 was determined for all wells. Growth was defined as OD600>0.1. MICs were defined as the lowest concentration producing no visible turbidity (OD600<0.1).
# [3] = system: P. aeruginosa #44; experiment: Lung infection in neutropenic mice; assay type: in vivo; details: for Log10 CFU/mL lung homogenate ± SD: lungs at 24 h; for ED−3log10 (dose for 3 log10 reduction in bacterial count vs water): lung infection, sc, Compound 5 value corrected for lot potency 711 μg/mg
# Procedure: Infection was induced in normal immunocompetent or neutropenic mice by intranasal inoculation of P. aeruginosa #44. […] At 24 hours post-infection, mice were humanely euthanized and the lungs of the mice were removed, homogenized, serially diluted, and plated on agar, to quantitate the bacterial burden.
# All of the test compounds were dissolved in sterile water for administration by subcutaneous (sc) injection. […] A series of dilutions of test compounds were prepared in water.
# In the lung infection model using P. aeruginosa #44 as the infecting organism, CD-1 mice were made neutropenic by intraperitoneal (ip) administration with 150 mg/kg cyclophosphamide on day-4, followed by a second ip dose of 100 mg/kg cyclophosphamide on day-1. On day 0 a diluted, exponential-phase growing culture of P. aeruginosa #44 corresponding to 1×10^5 or 2.5×10^8 CFU respectively, in 0.1 mL of sterile saline, was inoculated by the intranasal route in mice. Just prior to inoculation, mice were anaesthetized with 60 mg/kg pentobarbital, ip. The actual concentration of bacteria in the inoculum was confirmed by determination of viable counts by dilution plating on tryptic soy agar plates. The number of CFU of bacteria was determined after an incubation of 16 h at 37° C.
# Groups of five mice were used for each dose of the test compounds and the vehicle (water) control group. Each group received sc injections of test compounds or vehicle at 1 hour post-infection, and then at 6 hours post-infection for a total of 2 doses. In each study, there were three to five dose groups per test compound.
# Eighteen hours after the last injection, the mice were euthanized by asphyxiation with CO2. The lungs were removed aseptically, homogenized in 4 mL of sterile, distilled water and dilution plated on tryptic soy agar plates to quantify bacterial CFU. The number of CFU of bacteria in lungs was determined after an incubation of 16 hours at 37° C. (the CFU per milliliter of homogenate).
# The results were expressed as the geometric mean log10 CFU/mL±the standard deviation. The limit of detection was 10 CFU per mL of lung homogenate. Lungs were considered sterile when no CFU were detected on the agar. The efficacy of the test compounds was assessed by comparing the number of log10 CFU/mL measured in the infected and treated mice with control animals treated with water.
# Dose response curves of test compounds were generated for each isolate. Regression lines were generated in Microsoft Excel and used to calculate the dose expected to produce a 3 log10 reduction in bacterial count as compared to water-treated group [ED−3 log 10 (mg/kg, sc, BID)].
# [4] = 2.0 mg/kg BID sc, 1 and 6 h post-infection, water control 7.75
# [5] = 4.0 mg/kg BID sc, 1 and 6 h post-infection, water control 6.53
SMILES,"Log10 CFU/mL thigh homogenate ± SD [1, 4] [Log10 CFU/mL]",Log10 CFU/mL thigh homogenate ± SD ([1]; 4.0 mg/kg BID sc) [Log10 CFU/mL],Log10 CFU/mL thigh homogenate ± SD ([1]; 8.0 mg/kg BID sc) [Log10 CFU/mL],Log10 CFU/mL thigh homogenate ± SD ([1]; 12.0 mg/kg BID sc) [Log10 CFU/mL],ED−3log10 (dose for 3 log10 reduction in bacterial count vs water) [1],activity against bacteria compared with polymyxin B [2],MIC P. aeruginosa [2] [micrograms/ml],"Log10 CFU/mL lung homogenate ± SD [3, 5] [Log10 CFU/mL]",Log10 CFU/mL lung homogenate ± SD ([3]; 8.0 mg/kg BID sc) [Log10 CFU/mL],Log10 CFU/mL lung homogenate ± SD ([3]; 12.0 mg/kg BID sc) [Log10 CFU/mL],Log10 CFU/mL lung homogenate ± SD ([3]; 16.0 mg/kg BID sc) [Log10 CFU/mL],Log10 CFU/mL lung homogenate ± SD ([3]; 20.0 mg/kg BID sc) [Log10 CFU/mL],ED−3log10 (dose for 3 log10 reduction in bacterial count vs water) [3]
"CC(C)C[C@@H]1NC(=O)[C@@H](Cc2ccccc2)NC(=O)[C@H](CCN)NC(=O)[C@@H](NC(=O)[C@H](CCN)NC(=O)[C@@H](NC(=O)[C@H](CCN)NC(=O)Nc2ccccc2Cl)[C@@H](C)O)CCNC(=O)[C@H]([C@@H](C)O)NC(=O)[C@H](CCN)NC(=O)[C@H](CCN)NC1=O [Compound 5, (S)-4-amino-N-((2S,3R)-1-((S)-4-amino-1-oxo-1-((3S,6S,9S,12S,15R,18S,21S)-6,9,18-tris(2-aminoethyl)-15-benzyl-3-((R)-1-hydroxyethyl)-12-isobutyl-2,5,8,11,14,17,20-heptaoxo-1,4,7,10,13,16,19-heptaazacyclotricosan-21-ylamino)butan-2-ylamino)-3-hydroxy-1-oxobutan-2-yl)-2-(3-(2-chlorophenyl)ureido)butanamide] ({NH(2-ClPh)-CO}-[Dab]T[Dab][Dab][Dab][dF]L[Dab][Dab]T; lactam 4-C)",6.93 ± 0.56,6.64 ± 0.55,5.06 ± 0.80,3.97 ± 0.34,"6.4^b mg/kg, BID",as active or more active,2,5.49 ± 1.27,4.86 ± 1.18,4.13 ± 1.46,2.56 ± 0.34,2.51 ± 0.70,"9.05^b mg/kg, BID"
"CCC(C)CCCCC(=O)NC(CCN)C(=O)NC(C(=O)NC(CCN)C(=O)NC1CCNC(=O)C(C(C)O)NC(=O)C(CCN)NC(=O)C(CCN)NC(=O)C(CC(C)C)NC(=O)C(Cc2ccccc2)NC(=O)C(CCN)NC1=O)C(C)O (stereo not shown) [Polymyxin B, polymyxin B, reference compound] ({Octanoyl(6-Me)}-[Dab]T[Dab][Dab][Dab]FL[Dab][Dab]T; lactam 4-C; configuration not given here)",6.04 ± 1.10,4.94 ± 1.03,4.07 ± 0.41,4.19 ± 0.59,"4.8 mg/kg, BID",–,2,6.48 ± 1.59,5.73 ± 1.92,3.47 ± 1.16,2.88 ± 1.07,2.71 ± 1.09,"12.97 mg/kg, BID"
